Reference: patent publication US20090182026A1, “ALPHA 2 ADRENERGIC AGONISTS” (ALLERGAN, INC., priority 2005, published 2009)
“Also recorded” adds a separate entry of the source. Blank lines part the entries; values can stand above or below the molecule they belong to.

How the values were obtained:
Alpha adrenergic = Alpha adrenergic activity of prior-application compound (statement); settings: background statement
alpha2A receptor = biological target: T1, alpha2A receptor (Homo sapiens, UniProt P08913); test: RSAT assay, alpha2A receptor; assay type: cell-based; settings: NIH-3T3 cells, relative to brimonidine, NA = not active at concentrations less than 10 micromolar
T1 construct: expressed in transfected cells; host or cells: NIH-3T3
T1 sequence (P08913 1-465): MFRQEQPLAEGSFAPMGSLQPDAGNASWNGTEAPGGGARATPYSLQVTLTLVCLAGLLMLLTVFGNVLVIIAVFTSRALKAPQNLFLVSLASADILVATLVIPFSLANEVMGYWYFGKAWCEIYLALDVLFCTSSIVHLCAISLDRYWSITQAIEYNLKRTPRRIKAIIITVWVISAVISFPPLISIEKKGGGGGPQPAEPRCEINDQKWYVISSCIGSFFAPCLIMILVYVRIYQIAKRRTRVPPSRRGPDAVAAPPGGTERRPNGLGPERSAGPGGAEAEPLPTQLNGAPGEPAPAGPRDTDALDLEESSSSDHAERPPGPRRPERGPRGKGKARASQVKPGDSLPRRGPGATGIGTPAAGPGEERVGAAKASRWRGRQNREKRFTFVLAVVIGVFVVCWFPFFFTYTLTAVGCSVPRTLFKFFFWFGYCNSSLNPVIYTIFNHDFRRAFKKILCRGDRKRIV
Description: (§1) The RSAT assay measures a receptor-mediated loss of contact inhibition that results in selective proliferation of receptor-containing cells in a mixed population of confluent cells. The increase in cell number is assessed with an appropriate transfected marker gene such as […], the activity of which can be easily measured in a 96-well format. Receptors that activate the G protein, Gq, elicit this response. Alpha2 receptors, which normally couple to Gi, activate the RSAT response when coexpressed with a hybrid Gq protein that has a Gi receptor recognition domain, called Gq/i5.
(§2) NIH-3T3 cells are plated at a density of 2×10^6 cells in 15 cm dishes and maintained in Dulbecco's modified Eagle's medium supplemented with 10% calf serum. One day later, cells are cotransfected by calcium phosphate precipitation with mammalian expression plasmids encoding p-SV-β-galactosidase (5-10 μg), receptor (1-2 μg) and G protein (1-2 μg). 40 μg salmon sperm DNA may also be included in the transfection mixture. Fresh media is added on the following day and 1-2 days later, cells are harvested and frozen in 50 assay aliquots. Cells are thawed and 100 μl added to 100 μl aliquots of various concentrations of drugs in triplicate in 96-well dishes. Incubations continue 72-96 hr at 37° C. After washing with phosphate-buffered saline, β-galactosidase enzyme activity is determined by adding […] of the chromogenic substrate (consisting of 3.5 mM o-nitrophenyl-β-D-galactopyranoside and 0.5% nonidet P-40 in phosphate buffered saline), incubating overnight at 30° C. and measuring optical density at 420 nm. The absorbance is a measure of enzyme activity, which depends on cell number and reflects a receptor-mediated cell proliferation. The efficacy or intrinsic activity is calculated as a ratio of the maximal effect of the drug to the maximal effect of a standard full agonist for each receptor subtype. Brimonidine, also called UK14304, the chemical structure of which is shown below, is used as the standard agonist for the alpha2A, alpha2B and alpha2C receptors. […]

alpha2B receptor = biological target: T2, alpha2B receptor (Homo sapiens, UniProt P18089); test: RSAT assay, alpha2B receptor; assay type: cell-based; settings: NIH-3T3 cells, relative to brimonidine, NA = not active at concentrations less than 10 micromolar
T2 construct: expressed in transfected cells; host or cells: NIH-3T3
T2 sequence (P18089 1-450): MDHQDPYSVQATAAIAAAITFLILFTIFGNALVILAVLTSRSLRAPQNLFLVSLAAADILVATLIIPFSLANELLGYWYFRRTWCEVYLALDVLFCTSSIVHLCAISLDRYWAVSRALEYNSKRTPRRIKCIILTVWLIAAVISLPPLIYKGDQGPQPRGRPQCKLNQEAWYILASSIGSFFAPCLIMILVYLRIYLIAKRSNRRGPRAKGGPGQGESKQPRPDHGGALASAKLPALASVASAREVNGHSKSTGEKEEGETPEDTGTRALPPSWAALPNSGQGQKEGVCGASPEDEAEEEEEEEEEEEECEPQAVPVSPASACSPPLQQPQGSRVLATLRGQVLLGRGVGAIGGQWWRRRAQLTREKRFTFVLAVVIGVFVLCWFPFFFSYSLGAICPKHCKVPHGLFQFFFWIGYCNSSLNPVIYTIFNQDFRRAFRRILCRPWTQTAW
Description: as §1, §2

alpha2C receptor = biological target: T3, alpha2C receptor (Homo sapiens, UniProt P18825); test: RSAT assay, alpha2C receptor; assay type: cell-based; settings: NIH-3T3 cells, relative to brimonidine, NA = not active at concentrations less than 10 micromolar
T3 construct: expressed in transfected cells; host or cells: NIH-3T3
T3 sequence (P18825 1-462): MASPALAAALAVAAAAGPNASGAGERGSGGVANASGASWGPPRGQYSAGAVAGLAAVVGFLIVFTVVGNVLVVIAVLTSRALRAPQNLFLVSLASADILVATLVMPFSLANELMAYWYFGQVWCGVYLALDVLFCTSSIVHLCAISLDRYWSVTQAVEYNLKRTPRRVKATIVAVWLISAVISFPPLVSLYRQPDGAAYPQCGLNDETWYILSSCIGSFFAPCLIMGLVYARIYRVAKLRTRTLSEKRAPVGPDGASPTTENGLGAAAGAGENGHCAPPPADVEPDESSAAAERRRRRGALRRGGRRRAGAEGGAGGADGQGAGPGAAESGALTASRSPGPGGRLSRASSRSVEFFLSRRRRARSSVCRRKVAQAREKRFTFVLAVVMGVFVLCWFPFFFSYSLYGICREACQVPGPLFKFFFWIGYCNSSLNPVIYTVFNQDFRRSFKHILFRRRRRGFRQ
Description: as §1, §2

α1 = test: RSAT assay, α1 receptor; assay type: cell-based; settings: NIH-3T3 cells, ratio of maximal effect to that of standard full agonist, NA = not active at concentrations less than 10 micromolar
Description: as §1
NIH-3T3 cells are plated at a density of 2×10^6 cells in 15 cm dishes and maintained in Dulbecco's modified Eagle's medium supplemented with 10% calf serum. […] After washing with phosphate-buffered saline, β-galactosidase enzyme activity is determined by adding […] of the chromogenic substrate (consisting of 3.5 mM o-nitrophenyl-β-D-galactopyranoside and 0.5% nonidet P-40 in phosphate buffered saline), incubating overnight at 30° C. and measuring optical density at 420 nm. The absorbance is a measure of enzyme activity, which depends on cell number and reflects a receptor-mediated cell proliferation. The efficacy or intrinsic activity is calculated as a ratio of the maximal effect of the drug to the maximal effect of a standard full agonist for each receptor subtype. […]

tactile hypersensitivity = test: Mouse model of tactile hypersensitivity (sulprostone); assay type: in vivo, Mice; settings: for activity in mouse model of tactile hypersensitivity: general statement, no dose
Description: Mice (5-6; 25-35 g) are injected with sulprostone (300 ng/kg intraperitoneal), a prostaglandin receptor agonist that activates EP1 prostaglandin receptors. This chemical stimulus results in sensitivity to light stroking of their flanks with a paintbrush, which is assessed every five minutes from 15 minutes to 50 minutes post-injection. Animals are scored as 0 (no response), 1 (avoidance) or 2 (vigorous avoidance, vocalization) every five minutes and the scores are summed to yield a total hypersensitivity score (maximum=16).
Compounds were tested for their ability to reduce the tactile hypersensitivity score when administered 15 min prior to the sulprostone. […] An oral dose of 300 ug/kg was also active. An ester prodrug, compound 3, was also tested orally.

[1] = system: intraocular pressure (IOP); test: IOP model, normotensive rabbits; assay type: in vivo, New Zealand Rabbits; settings: for lowering of IOP: qualitative statement (FIG. 2); for decrease in IOP: topical, rabbit eye (FIG. 2)
Description: Male New Zealand Rabbits (6-7; 2-3.5 kg) are used to evaluate drug effects on normotensive IOP measurements. The rabbits are carefully handled so as to minimize excitement. Approximately 25 ul of dilute OphtheticR (0.05%) topical anesthesia is administered to each eye. An initial IOP determination is made in both eyes. Rabbits with 3 mmHg or greater difference in IOP between its right and left eyes are replaced at this time.
Immediately following the T=0 reading in both eyes the rabbits are treated with the compound by a topical route. 35 ul of the test solution is instilled onto the cornea of the randomly selected test eye. Pressure readings are taken at various times post-instillation. Animals are kept in their cages with access to food and water between measurements. Pressure readings utilize a Model 30 Classic™ Pneumatonometer to measure intraocular pressure (IOP) non-invasively through applanation tonometry. compound 1 (0.1%) caused a 20% decrease in IOP and its ester, AGN 204216 (0.03%), caused a 30% decrease in IOP (FIG. 2)

locomotor activity [2] = test: Sedation model, exploratory locomotor activity, rats; assay type: in vivo; settings: for rat locomotor activity: 30 min after dosing (FIG. 3)
Description: (§3) The utility of alpha2-adrenergic agonists is limited by a range of side effects, particularly sedation and cardiovascular depression. The sedative activity of the compounds is assessed by measuring their ability to reduce the exploratory activity of mice and rats when placed in a dark chamber 30 min following dosing. The animal's activity is determined automatically by placing it in a digicom analyzer chamber (Omnitech Electronic). These chambers have photocells criss-crossing the box that are broken as the animal moves around. The computer analyzes this movement and records total activity over a 5-min time period. […] This represents greater than a 300-fold margin of safety (FIG. 4).

locomotor activity [3] = test: Sedation model, exploratory locomotor activity, mice; assay type: in vivo
Description: as §3

SMILES: O=c1[nH]cc(CC2CCC=C(CO)C2)[nH]1 (centres unmarked)
- Alpha adrenergic activity (Alpha adrenergic): no Alpha adrenergic activity

- Intrinsic activity α2A (alpha2A receptor): 0.81
- Intrinsic activity α2B (alpha2B receptor): 0.86
- Intrinsic activity α2C (alpha2C receptor): 0.95
SMILES: NCC1=CCCC(Cc2c[nH]c(=S)[nH]2)C1 (centres unmarked)

- Intrinsic activity α2A (alpha2A receptor): 0.9
- Intrinsic activity α2B (alpha2B receptor): 1.0
- Intrinsic activity α2C (alpha2C receptor): 1.1
SMILES: OCC1=CCC[C@@H](Cc2c[nH]c(=S)[nH]2)C1
- Intrinsic activity α1 (α1): 1.1

SMILES: OCC1=CCCC(Cc2c[nH]c(=S)[nH]2)C1 (centres unmarked) [Compound 1, 4-(3-hydroxymethyl-cyclohex-3-enylmethyl)-1,3-dihydro-imidazole-2-thione]
- reduction of tactile hypersensitivity (tactile hypersensitivity; dosed intraperitoneally 15 min prior to sulprostone, dose response): reduced the hypersensitivity in a dose-related manner
- effect on tactile hypersensitivity (tactile hypersensitivity; intraperitoneal, 30 ug/kg): partial effect
- effect on tactile hypersensitivity (tactile hypersensitivity; intraperitoneal, 100 ug/kg): full effect
- total tactile hypersensitivity score (tactile hypersensitivity; intraperitoneal, 100 ug/kg, maximum=16, sulprostone 12-14, vehicle 4-6): 5
- effect on tactile hypersensitivity (tactile hypersensitivity; oral dose of 300 ug/kg): active
- lowering of IOP [1]: lower rabbit IOP
- decrease in IOP ([1]; 35 ul of 0.1% solution): 20%
- rat locomotor activity (locomotor activity [2]; intraperitoneal doses up to at least 3 mg/kg): did not decrease rat locomotor activity
- rat locomotor activity (locomotor activity [2]; oral doses up to at least 10 mg/kg): did not decrease rat locomotor activity
- sedation / decrease of locomotor activity (locomotor activity [2]; qualitative statement, no dose): does not sedate rats
- margin of safety (non-sedating dose vs effective dose) (locomotor activity [2]; rat locomotor activity vs tactile hypersensitivity doses): ≥ 30 fold

SMILES: O=C(CC1CCCC1)OCC1=CCCC(Cc2c[nH]c(=S)[nH]2)C1 (centres unmarked) [Compound 3, cyclopentyl-acetic acid 5-(2-thioxo-2,3-dihydro-1H-imidazol-4-ylmethyl)-cyclohex-1-enylmethyl ester]
- effect on tactile hypersensitivity (tactile hypersensitivity; oral dose of 30 ug/kg): full effect
- alleviation of tactile hypersensitivity (tactile hypersensitivity; oral dosing, dose response (FIG. 1)): alleviates tactile hypersensitivity; also recorded: very potent at alleviating the tactile sensitivity in a dose-related manner
- lowering of IOP [1]: lower rabbit IOP
- decrease in IOP ([1]; 35 ul of 0.03% solution): 30%
- sedation (locomotor activity [2]; rats, oral dose of 3 mg/kg): did not sedate
- sedation (locomotor activity [3]; mice, oral dose of 3 mg/kg): did not sedate
- margin of safety / therapeutic window (locomotor activity [3]; oral, mice or rats (FIG. 4)): > 300 fold

SMILES: Brc1c(N=C2NCCN2)ccc2nccnc12 [brimonidine, reference compound]
- activity in mouse model of tactile hypersensitivity (tactile hypersensitivity): active

SMILES: Clc1cccc(Cl)c1N=C1NCCN1 [clonidine, reference compound]
- activity in mouse model of tactile hypersensitivity (tactile hypersensitivity): active

SMILES: OCC1=CCCC(Cc2c[nH]c(=S)[nH]2)C1 (centres unmarked) [drawing 35]
- Intrinsic activity α1 (α1): 0.93
- Intrinsic activity α2A (alpha2A receptor): 0.85
- Intrinsic activity α2B (alpha2B receptor): 0.98
- Intrinsic activity α2C (alpha2C receptor): 1.10
